The values below are quoted from earlier work in patent publication US20100190757A1, “COMBINATION PREPARATION FOR ORAL CONTREACEPTION AND ORAL THERAPY OF DYSFUNCTIONAL UTERINE BLEEDING CONTAINING ESTRADIOL VALERATE AND DIENOGEST AND METHOD OF USING SAME” (priority 2005, published 2010).

For the data set, the system named is dysfunctional uterine bleeding. Conditions: for duration of the bleeding period: 6 anovulatory women (14 days, 12th to 25th day of cycle) and ten ovulatory women (20 days, 5th to 25th day), three times daily, both groups; for reliable contraception: same regimen, anovulatory and ovulatory women.

In the case of `CC(=O)O[C@]1(C(C)=O)CC[C@H]2[C@@H]3C[C@H](C)C4=CC(=O)CC[C@]4(C)[C@H]3CC[C@@]21C` [medroxyprogesterone acetate], the “duration of the bleeding period” value is given as “reduced” and the reliable contraception result is “not attained”.
Regarding `C#C[C@]1(O)CC[C@H]2[C@@H]3CCC4=CC(=O)CC[C@@H]4[C@H]3CC[C@@]21C` [norethisterone], the “duration of the bleeding period” value is reported as “reduced” and the reliable contraception entry is “not attained”.
